Test results published in patent publication US11918592B2, “Inhibitors of cyclin dependent kinase 7 (CDK7)” (Syros Pharmaceuticals, Inc., priority 2018, dated 2024).
Where two headings read alike, the source gives them in different places.

Experiments:
COV504 cells = test: Inhibition of cell proliferation, CyQUANT Direct, COV504; format: cell-based; details: Homo sapiens; COV504 ovarian cancer cells, 72-hour; read-out: COV 504 proliferation calculated IC50
Protocol: (§1) HCC70 and MB453 cells are cell lines derived from human triple negative breast cancer. COV318 and COV504 cells are cell lines derived from human ovarian cancer. Representative compounds of the invention were tested at different concentrations (from 4 μM to 126.4 pM; 0.5 log serial dilutions) for their ability to inhibit the proliferation of each of these cell lines. Known CDK inhibitors dinaciclib or N-((1S,3R)-3-((5-chloro-4-(1H-indol-3-yl) pyrimidin-2-yl)amino)cyclohexyl)-5-((E)-4-(dimethylamino)but-2-enamido)picolinamide and triptolide were used as positive controls. Cells were seeded at approximately 2,000 cells/well and grown in ATCC-formulated RPMI-1640 Medium (ATCC 30-2001)+10% FBS. The cells were cultured at 37° C. in a humidified chamber in the presence of 5% CO2. Proliferation assays were conducted over a 72-hour time period. CyQUANT® Direct Cell Proliferation Assay (Life Technologies, Chicago, IL USA) was used to assess the anti-proliferative effects of the compounds following manufacturer's directions and utilizing the reagents supplied with the CyQUANT® Direct Cell kit.

MB453 cells = test: Inhibition of cell proliferation, CyQUANT Direct, MB453; format: cell-based, human; details: MB453 triple negative breast cancer cells, 72-hour, read-out: MB 453 proliferation calculated IC50
Protocol: as §1

[1] = target: CDK7/Cyclin H/MAT1 complex (Homo sapiens, UniProt P50613); test: CDK7 kinase inhibition assay (Caliper/LabChip EZ Reader)
Chain of CDK7/Cyclin H/MAT1 complex (P50613 whole entry): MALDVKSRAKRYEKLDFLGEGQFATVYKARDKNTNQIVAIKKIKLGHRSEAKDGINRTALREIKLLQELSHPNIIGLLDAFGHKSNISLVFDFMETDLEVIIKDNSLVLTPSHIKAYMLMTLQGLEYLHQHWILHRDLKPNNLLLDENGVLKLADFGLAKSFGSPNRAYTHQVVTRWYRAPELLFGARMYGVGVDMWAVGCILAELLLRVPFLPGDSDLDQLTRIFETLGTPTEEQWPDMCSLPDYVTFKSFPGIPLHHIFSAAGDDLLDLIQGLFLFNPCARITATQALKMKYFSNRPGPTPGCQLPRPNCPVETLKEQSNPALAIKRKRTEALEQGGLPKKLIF
Chain of CDK7/Cyclin H/MAT1 complex (P51946 whole entry partner): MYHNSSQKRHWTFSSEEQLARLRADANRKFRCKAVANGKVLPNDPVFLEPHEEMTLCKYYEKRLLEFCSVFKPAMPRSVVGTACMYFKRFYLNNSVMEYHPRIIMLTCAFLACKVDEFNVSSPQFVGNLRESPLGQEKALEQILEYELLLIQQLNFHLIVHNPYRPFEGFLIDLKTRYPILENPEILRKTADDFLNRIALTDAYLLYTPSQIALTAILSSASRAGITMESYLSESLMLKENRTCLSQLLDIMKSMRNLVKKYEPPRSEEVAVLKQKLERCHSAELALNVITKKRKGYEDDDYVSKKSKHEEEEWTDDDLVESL
Chain of CDK7/Cyclin H/MAT1 complex (P51948 whole entry partner): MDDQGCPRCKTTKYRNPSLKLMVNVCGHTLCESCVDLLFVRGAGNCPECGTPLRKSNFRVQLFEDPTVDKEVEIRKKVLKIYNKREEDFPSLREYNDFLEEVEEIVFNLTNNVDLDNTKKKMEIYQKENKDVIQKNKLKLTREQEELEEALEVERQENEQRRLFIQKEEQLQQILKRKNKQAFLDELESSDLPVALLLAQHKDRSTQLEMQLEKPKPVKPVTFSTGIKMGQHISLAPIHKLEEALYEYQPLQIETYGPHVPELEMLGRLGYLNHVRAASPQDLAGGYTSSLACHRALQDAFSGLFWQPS
Protocol: (§2) Compounds of the invention were assayed for inhibition of CDK7, CDK9, CDK12, and CDK2 activity at Biortus Biosciences (Jiangyin, Jiangsu Province, P.R. of China) using kinase assays for each CDK developed with a Caliper/LabChip EZ Reader (Perkin Elmer, Waltham, MA).
(§3) Furthermore, the CDK9 inhibition assay used CDK9/Cyclin T1 complex (8 nM) and “5-FAM-CDK9tide” peptide substrate (2 μM, synthesized fluorophore-labeled peptide with the following sequence: 5-FAM-GSRTPMY-NH2 (SEQ ID NO:2) where 5-FAM is defined above and NH2 signifies a C-terminal amide) with 10 mM MgCl2 in the buffer composition listed above. The CDK12 inhibition assay used CDK12 (aa686-1082)/Cyclin K complex (50 nM) and “5-FAM-CDK9tide” (2 μM) as defined above, with 2 mM MgCl2 in the buffer composition above. Additionally, the CDK2 inhibition assay used CDK2/Cyclin E1 complex (0.5 nM) and “5-FAM-CDK7tide” (2 μM) as defined above, with 2 mM MgCl2 in the buffer composition listed above.
(§4) The incubation period at 27° C. for each CDK inhibition assay was chosen such that the fraction of phosphorylated peptide product produced in each assay, relative to the total peptide concentration, was approximately 20% (±5%) for the uninhibited kinase (35 min. for CDK7, 35 min. for CDK2, 3 hr. for CDK12, 15 min. for CDK9).

HCC70 cells = test: Inhibition of cell proliferation, CyQUANT Direct, HCC70; format: cell-based, human; details: HCC70 triple negative breast cancer cells, 72-hour, read-out: HCC 70 proliferation calculated IC50
Protocol: as §1

COV318 cells = test: Inhibition of cell proliferation, CyQUANT Direct, COV318; format: cell-based; details: Homo sapiens; COV318 ovarian cancer cells, 72-hour; read-out: COV 318 proliferation calculated IC50
Protocol: as §1

CDK9/Cyclin T1 complex = CDK9/Cyclin T1 complex (Homo sapiens, UniProt P50750); test: CDK9 kinase inhibition assay (Caliper/LabChip EZ Reader)
Chain of CDK9/Cyclin T1 complex (P50750 whole entry, the tested form may be a part): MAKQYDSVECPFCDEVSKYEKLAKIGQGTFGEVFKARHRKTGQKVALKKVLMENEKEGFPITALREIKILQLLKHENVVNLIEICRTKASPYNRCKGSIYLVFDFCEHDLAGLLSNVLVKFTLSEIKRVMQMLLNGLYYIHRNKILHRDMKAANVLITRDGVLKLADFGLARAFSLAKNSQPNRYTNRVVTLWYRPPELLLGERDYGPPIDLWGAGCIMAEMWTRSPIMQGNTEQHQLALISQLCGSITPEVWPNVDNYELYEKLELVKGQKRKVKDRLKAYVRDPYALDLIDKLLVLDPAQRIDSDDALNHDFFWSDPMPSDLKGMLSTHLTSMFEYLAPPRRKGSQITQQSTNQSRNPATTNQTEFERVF
Chain of CDK9/Cyclin T1 complex (O60563 whole entry partner, the tested form may be a part): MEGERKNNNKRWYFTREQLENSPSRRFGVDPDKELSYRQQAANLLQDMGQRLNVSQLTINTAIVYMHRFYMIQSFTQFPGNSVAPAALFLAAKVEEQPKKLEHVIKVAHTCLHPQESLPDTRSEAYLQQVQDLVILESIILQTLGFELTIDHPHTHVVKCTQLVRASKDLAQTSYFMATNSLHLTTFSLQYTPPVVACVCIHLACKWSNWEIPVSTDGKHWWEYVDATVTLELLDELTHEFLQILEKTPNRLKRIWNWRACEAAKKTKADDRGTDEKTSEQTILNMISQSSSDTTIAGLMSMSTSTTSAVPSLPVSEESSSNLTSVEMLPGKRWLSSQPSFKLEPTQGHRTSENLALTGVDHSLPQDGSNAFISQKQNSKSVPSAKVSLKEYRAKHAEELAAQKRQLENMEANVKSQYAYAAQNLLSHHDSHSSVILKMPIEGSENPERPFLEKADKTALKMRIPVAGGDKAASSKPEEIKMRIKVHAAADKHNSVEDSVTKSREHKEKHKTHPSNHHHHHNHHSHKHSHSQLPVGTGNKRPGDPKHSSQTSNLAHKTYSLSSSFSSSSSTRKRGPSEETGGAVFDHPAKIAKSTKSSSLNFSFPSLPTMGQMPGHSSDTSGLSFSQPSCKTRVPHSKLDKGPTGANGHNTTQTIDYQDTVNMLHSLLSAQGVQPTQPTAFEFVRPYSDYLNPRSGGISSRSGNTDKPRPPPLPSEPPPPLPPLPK
Protocol: as §2, §3, §4

[2] = target: CDK12 (aa686-1082)/Cyclin K complex (Homo sapiens, UniProt Q9NYV4); test: CDK12 kinase inhibition assay (Caliper/LabChip EZ Reader)
Chain of CDK12 (aa686-1082)/Cyclin K complex (Q9NYV4 686-1082): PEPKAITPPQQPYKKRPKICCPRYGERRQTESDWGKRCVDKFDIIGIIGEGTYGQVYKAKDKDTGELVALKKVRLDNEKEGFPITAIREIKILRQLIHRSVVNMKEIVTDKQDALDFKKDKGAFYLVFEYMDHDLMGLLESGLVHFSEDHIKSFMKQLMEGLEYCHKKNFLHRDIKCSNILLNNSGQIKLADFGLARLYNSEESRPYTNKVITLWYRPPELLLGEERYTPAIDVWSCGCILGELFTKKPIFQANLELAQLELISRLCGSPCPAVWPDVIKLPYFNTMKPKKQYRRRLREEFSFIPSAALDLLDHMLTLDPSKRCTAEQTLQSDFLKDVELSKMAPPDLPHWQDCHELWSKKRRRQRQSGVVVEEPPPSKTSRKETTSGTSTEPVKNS
Chain of CDK12 (aa686-1082)/Cyclin K complex (O75909 whole entry partner, the tested form may be a part): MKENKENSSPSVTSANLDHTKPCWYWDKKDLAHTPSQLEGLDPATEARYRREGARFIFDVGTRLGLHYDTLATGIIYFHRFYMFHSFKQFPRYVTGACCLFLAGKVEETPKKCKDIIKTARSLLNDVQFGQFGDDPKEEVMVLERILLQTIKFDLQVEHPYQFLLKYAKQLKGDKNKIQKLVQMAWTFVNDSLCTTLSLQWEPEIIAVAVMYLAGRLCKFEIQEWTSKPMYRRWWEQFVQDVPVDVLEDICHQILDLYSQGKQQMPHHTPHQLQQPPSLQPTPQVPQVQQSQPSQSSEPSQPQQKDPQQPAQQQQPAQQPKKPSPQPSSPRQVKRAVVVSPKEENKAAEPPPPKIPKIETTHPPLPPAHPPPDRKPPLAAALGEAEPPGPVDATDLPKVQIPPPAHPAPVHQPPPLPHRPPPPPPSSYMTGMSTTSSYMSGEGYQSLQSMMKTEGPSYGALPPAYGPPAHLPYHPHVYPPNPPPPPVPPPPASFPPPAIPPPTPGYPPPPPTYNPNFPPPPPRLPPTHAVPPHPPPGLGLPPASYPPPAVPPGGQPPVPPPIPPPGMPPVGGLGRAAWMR

CDK2/Cyclin E1 complex = CDK2/Cyclin E1 complex (Homo sapiens, UniProt P24941); test: CDK2 kinase inhibition assay (Caliper/LabChip EZ Reader)

| SMILES | IC50 (COV504 cells) | IC50 (MB453 cells; Homo sapiens) | IC50 [1] | IC50 (HCC70 cells; Homo sapiens) | IC50 (COV318 cells) | IC50 (CDK9/Cyclin T1 complex) | IC50 [2] | IC50 (CDK2/Cyclin E1 complex) | IC50 (MB453 cells) | IC50 ([1]; read-out: CDK 7 calculated IC50, ATP 2 mM, 27° C., 35 min incubation, 6 mM MgCl2) | IC50 (HCC70 cells) | IC50 (CDK9/Cyclin T1 complex; read-out: CDK 9 calculated IC50, ATP 2 mM, 27° C., 15 min incubation, 10 mM MgCl2) | IC50 ([2]; read-out: CDK 12 calculated IC50, ATP 2 mM, 27° C., 3 hr incubation, 2 mM MgCl2) | IC50 (CDK2/Cyclin E1 complex; read-out: CDK 2 calculated IC50, ATP 2 mM, 27° C., 35 min incubation, 2 mM MgCl2) |
| --- | --- | --- | --- | --- | --- | --- | --- | --- | --- | --- | --- | --- | --- | --- |
| N#Cc1ccc2c(-c3nc(N[C@@H]4C[C@@H]5CCC4N5)ncc3C(F)(F)F)c[nH]c2c1 (racemic) [Compound 106, 3-(2-[[(+/−)-exo-7-azabicyclo[2.2.1]heptan-2-yl]amino]-5-(trifluoromethyl)pyrimidin-4-yl)-1H-indole-6-carbonitrile] | 0.1 to 0.5 µM | 0.1 to 0.5 µM | < 0.03 µM | 0.1 to 0.5 µM | 0.1 to 0.5 µM | > 0.5 µM | > 0.5 µM | > 0.5 µM | – | – | – | – | – | – |
| N#Cc1ccc2c(-c3nc(N[C@@H]4CNC[C@@H]4O)ncc3C(F)(F)F)c[nH]c2c1 (relative stereo) [Compound 107] | > 2 µM | > 2 µM | 0.1 to 0.5 µM | > 2 µM | > 2 µM | > 0.5 µM | > 0.5 µM | > 0.5 µM | – | – | – | – | – | – |
| N#Cc1ccc2c(-c3nc(N[C@@H]4CNC[C@H]4F)ncc3C(F)(F)F)c[nH]c2c1 (relative stereo) [Compound 110] | 0.5 to 2 µM | > 2 µM | 0.1 to 0.5 µM | 0.5 to 2 µM | > 2 µM | > 0.5 µM | > 0.5 µM | > 0.5 µM | – | – | – | – | – | – |
| CCO[C@@H]1CNC[C@H]1Nc1ncc(C(F)(F)F)c(-c2c[nH]c3cc(C#N)ccc23)n1 (relative stereo) [Compound 111] | > 2 µM | > 2 µM | 0.1 to 0.5 µM | > 2 µM | > 2 µM | > 0.5 µM | > 0.5 µM | > 0.5 µM | – | – | – | – | – | – |
| N#Cc1ccc2c(-c3nc(N[C@H]4CNC[C@@H]4c4ccc(Cl)cc4)ncc3C(F)(F)F)c[nH]c2c1 (relative stereo) [Compound 113] | 0.5 to 2 µM | > 2 µM | > 0.5 µM | > 2 µM | > 2 µM | > 0.5 µM | > 0.5 µM | > 0.5 µM | – | – | – | – | – | – |
| Cc1noc(C)c1-c1ccc2c(-c3nc(NC4CC[C@@H]4N4CCCC4)ncc3C(F)(F)F)c[nH]c2n1 (stereo in doubt) [Compound 149, 4-[6-(3,5-dimethylisoxazol-4-yl)-1H-pyrrolo[2,3-b]pyridin-3-yl]-N-(2-pyrrolidin-1-ylcyclobutyl)-5-(trifluoromethyl) pyrimidin-2-amine] | < 0.1 µM | < 0.1 µM | < 0.03 µM | < 0.1 µM | > 2 µM | > 0.5 µM | > 0.5 µM | > 0.5 µM | – | – | – | – | – | – |
| COCCNC1CCC[C@@H]1Nc1ncc(C(F)(F)F)c(-c2c[nH]c3nc(-c4c(C)noc4C)ccc23)n1 (stereo in doubt) [Compound 152, (1S, 2R)—N1-[4-[6-(3,5-dimethylisoxazol-4-yl)-1H-pyrrolo [2,3-b]pyridin-3-yl]-5-(trifluoromethyl)pyrimidin-2-yl]-N2-(2-methoxyethyl)cyclopentane-1,2-diamine] | 0.1 to 0.5 µM | 0.1 to 0.5 µM | < 0.03 µM | 0.1 to 0.5 µM | 0.5 to 2 µM | > 0.5 µM | > 0.5 µM | > 0.5 µM | – | – | – | – | – | – |
| N#Cc1ccc2c(-c3nc(N[C@H]4CCCC[C@@H]4N)ncc3C(F)(F)F)c[nH]c2c1 [Compound 100] | > 2 µM | 0.5 to 2 µM | > 0.5 µM | > 2 µM | > 2 µM | > 0.5 µM | > 0.5 µM | > 0.5 µM | – | – | – | – | – | – |
| N#Cc1ccc2c(-c3nc(N[C@H]4CCC[C@@H]4N)ncc3C(F)(F)F)c[nH]c2c1 [Compound 101] | 0.1 to 0.5 µM | 0.1 to 0.5 µM | < 0.03 µM | 0.1 to 0.5 µM | 0.1 to 0.5 µM | > 0.5 µM | > 0.5 µM | > 0.5 µM | – | – | – | – | – | – |
| N#Cc1ccc2c(-c3nc(NC[C@@H]4COCCN4)ncc3C(F)(F)F)c[nH]c2c1 [Compound 102] | > 2 µM | > 2 µM | > 0.5 µM | > 2 µM | > 2 µM | > 0.5 µM | > 0.5 µM | > 0.5 µM | – | – | – | – | – | – |
| N#Cc1ccc2c(-c3nc(N[C@H]4CC[C@@H]4N)ncc3C(F)(F)F)c[nH]c2c1 [Compound 103] | 0.1 to 0.5 µM | 0.1 to 0.5 µM | < 0.03 µM | 0.1 to 0.5 µM | 0.1 to 0.5 µM | > 0.5 µM | > 0.5 µM | > 0.5 µM | – | – | – | – | – | – |
| C[C@H]1C[C@H](Nc2ncc(C(F)(F)F)c(-c3c[nH]c4cc(C#N)ccc34)n2)CN1 [Compound 104] | 0.1 to 0.5 µM | 0.1 to 0.5 µM | 0.03 to 0.1 µM | 0.5 to 2 µM | > 2 µM | > 0.5 µM | > 0.5 µM | > 0.5 µM | – | – | – | – | – | – |
| CC(C)N1CC[C@H](Nc2ncc(C(F)(F)F)c(-c3c[nH]c4cc(C#N)ccc34)n2)C1 [Compound 105] | > 2 µM | > 2 µM | > 0.5 µM | > 2 µM | > 2 µM | > 0.5 µM | > 0.5 µM | > 0.5 µM | – | – | – | – | – | – |
| C[C@@H]1C[C@H](Nc2ncc(C(F)(F)F)c(-c3c[nH]c4cc(C#N)ccc34)n2)CN1 [Compound 108] | 0.5 to 2 µM | 0.5 to 2 µM | 0.03 to 0.1 µM | 0.5 to 2 µM | > 2 µM | > 0.5 µM | > 0.5 µM | > 0.5 µM | – | – | – | – | – | – |
| CN1CC[C@H](Nc2ncc(C(F)(F)F)c(-c3c[nH]c4cc(C#N)ccc34)n2)C1 [Compound 109] | 0.5 to 2 µM | 0.5 to 2 µM | 0.1 to 0.5 µM | 0.5 to 2 µM | 0.5 to 2 µM | > 0.5 µM | > 0.5 µM | > 0.5 µM | – | – | – | – | – | – |
| COCCN[C@@H]1CC[C@H]1Nc1ncc(C(F)(F)F)c(-c2c[nH]c3cc(C#N)ccc23)n1 [Compound 134] | – | – | > 0.5 µM | – | – | > 0.5 µM | > 0.5 µM | > 0.5 µM | – | – | – | – | – | – |
| N#Cc1ccc2c(-c3nc(N[C@@H]4CC[C@H]4N4CCCC4)ncc3C(F)(F)F)c[nH]c2c1 [Compound 136, 3-[2-[[(1R,2R)-2-pyrrolidin-1-ylcyclobutyl]-amino]-5-(trifluoromethyl)pyrimidin-4-yl]-1H-indole-6-carbonitrile] | – | – | 0.1 to 0.5 µM | – | – | > 0.5 µM | > 0.5 µM | > 0.5 µM | – | – | – | – | – | – |
| Cc1noc(C)c1-c1ccc2c(-c3nc(N[C@@H]4C[C@H]5CC[C@@H]4N5)ncc3C(F)(F)F)c[nH]c2c1 [Compound 138, (1R,2R,4S)—N-[4-[6-(3,5-dimethylisoxazol-4-yl)-1H-indol-3-yl]-5-(trifluoromethyl)pyrimidin-2-yl]-7-azabicyclo-[2.2.1]-heptan-3-amine] | – | – | – | – | – | – | – | – | 0.1 to 0.5 µM | 0.03 to 0.1 µM | 0.1 to 0.5 µM | > 0.5 µM | > 0.5 µM | > 0.5 µM |
| COC1CCN([C@H]2CCC[C@@H]2Nc2ncc(C(F)(F)F)c(-c3c[nH]c4nc(-c5c(C)noc5C)ccc34)n2)C1 (stereo partly drawn) [Compound 153] | 0.1 to 0.5 µM | 0.5 to 2 µM | – | 0.1 to 0.5 µM | > 2 µM | – | – | – | – | – | – | – | – | – |
| CP(C)(=O)c1c(C(N)=O)ccc2c(-c3nc(N[C@H]4CCC[C@@H]4N)ncc3C(F)(F)F)c[nH]c12 [Compound 162, 3-[2-[[(1S,2S)-2-aminocyclopentyl]amino]-5(trifluoromethyl)pyrimidin-4-yl]-7-dimethylphosphoryl-1H-indole-6-carboxamide] | – | – | < 0.03 µM | – | – | > 0.5 µM | – | > 0.5 µM | – | – | – | – | – | – |
